Experimental data: PubChem BioAssay (NCI)
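Cells were grown in 96-well plates and exposed to each compound for 48 hours at five concentrations; endpoints were interpolated linearly between bracketing concentrations, or set to the highest concentration if not reached. TGI denotes the concentration required for complete inhibition of growth.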

Tests used:
Test in all cases: growth of human tumour cells (NCI), 48 h
BT-549 breast = tested on: BT-549 breast
DU-145 prostate = tested on: DU-145 prostate
HCT-116 colon = tested on: HCT-116 colon
HCT-15 colon = tested on: HCT-15 colon
KM12 colon = tested on: KM12 colon
MCF7 breast = tested on: MCF7 breast
MDA-N = tested on: MDA-N
NCI-H23 lung = tested on: NCI-H23 lung
NCI/ADR-RES ovarian = tested on: NCI/ADR-RES ovarian
OVCAR-4 ovarian = tested on: OVCAR-4 ovarian
SK-MEL-2 melanoma = tested on: SK-MEL-2 melanoma
SW-620 colon = tested on: SW-620 colon
U251 CNS = tested on: U251 CNS

COC(=O)c1cc(S(=O)(=O)NC2=NCC(C)NN2)c(S)cc1Cl (stereo unspecified) was tested, and the TGI (BT-549 breast) was > 100 µM, the TGI (DU-145 prostate) was > 100 µM and the TGI (HCT-116 colon) was > 100 µM. The TGI (HCT-15 colon) was > 100 µM, the TGI (KM12 colon) was > 100 µM and the TGI (MCF7 breast) was > 100 µM. For the same molecule, the TGI (MDA-N) was > 100 µM, the TGI (NCI-H23 lung) was > 100 µM and the TGI (NCI/ADR-RES ovarian) was > 100 µM. For the same molecule, the TGI (OVCAR-4 ovarian) was > 100 µM, the TGI (SK-MEL-2 melanoma) was 84.5 µM and the TGI (SW-620 colon) was > 100 µM. For the same molecule, the TGI (U251 CNS) was > 100 µM.

For Cc1ccc(N=N/C(=N/NC(=O)c2ccccc2)c2ccc(N(CCC#N)CCC#N)cc2C)cc1, the TGI (BT-549 breast) was > 100 µM, the TGI (DU-145 prostate) was > 100 µM and the TGI (HCT-116 colon) was > 100 µM. For the same molecule, the TGI (HCT-15 colon) was > 100 µM, the TGI (KM12 colon) was > 100 µM and the TGI (MCF7 breast) was > 100 µM. For the same molecule, the TGI (MDA-N) was > 100 µM, the TGI (NCI-H23 lung) was > 100 µM and the TGI (NCI/ADR-RES ovarian) was > 100 µM. For the same molecule, the TGI (OVCAR-4 ovarian) was > 100 µM, the TGI (SK-MEL-2 melanoma) was > 100 µM and the TGI (U251 CNS) was > 100 µM.

Work on N#Cc1c(NC(=O)C(F)(F)F)sc2c3c(=O)c4ccccc4c(=O)c=3oc3ccccc3c12 yielded a TGI (BT-549 breast) of 53.3 µM, a TGI (DU-145 prostate) of 28.7 µM and a TGI (HCT-116 colon) of 29.1 µM. The TGI (HCT-15 colon) was 49.7 µM, the TGI (KM12 colon) was 26 µM and the TGI (MCF7 breast) was > 89.9 µM. The TGI (MDA-N) was 36.5 µM, the TGI (NCI-H23 lung) was 38.4 µM and the TGI (NCI/ADR-RES ovarian) was 61.7 µM. It also gave a TGI (OVCAR-4 ovarian) of 31.2 µM, a TGI (SK-MEL-2 melanoma) of 54.7 µM and a TGI (SW-620 colon) of 67.1 µM. For the same molecule, the TGI (U251 CNS) was 41.3 µM.

With Cc1ccc(OCC2OC(n3cnc4c(Cl)nc(Nc5cc(Cl)cc(Cl)c5)nc43)CC2Oc2ccc(C)cc2)cc1 (stereo unspecified) the TGI (BT-549 breast) was > 100 µM, the TGI (DU-145 prostate) was > 100 µM and the TGI (HCT-116 colon) was > 100 µM. The TGI (HCT-15 colon) was > 100 µM, the TGI (KM12 colon) was > 100 µM and the TGI (MCF7 breast) was > 100 µM. The TGI (MDA-N) was > 100 µM, the TGI (NCI-H23 lung) was > 100 µM and the TGI (NCI/ADR-RES ovarian) was > 100 µM. The TGI (OVCAR-4 ovarian) was 59.2 µM, the TGI (SK-MEL-2 melanoma) was > 100 µM and the TGI (SW-620 colon) was > 100 µM. The TGI (U251 CNS) was > 100 µM.

With N#Cc1sc2nc3ccccc3n2c1N the TGI (BT-549 breast) was > 100 µM, the TGI (DU-145 prostate) was > 100 µM and the TGI (HCT-116 colon) was > 100 µM. The TGI (HCT-15 colon) was > 100 µM, the TGI (KM12 colon) was 23.6 µM and the TGI (MCF7 breast) was > 100 µM. For the same molecule, the TGI (MDA-N) was > 100 µM, the TGI (NCI-H23 lung) was > 100 µM and the TGI (NCI/ADR-RES ovarian) was > 100 µM. The TGI (OVCAR-4 ovarian) was > 100 µM, the TGI (SK-MEL-2 melanoma) was 81.7 µM and the TGI (SW-620 colon) was > 100 µM. The TGI (U251 CNS) was > 100 µM.

For O=C1CC(O)c2cscc21 (stereo unspecified), the TGI (BT-549 breast) was > 100 µM, the TGI (DU-145 prostate) was > 100 µM and the TGI (HCT-116 colon) was > 100 µM. The TGI (HCT-15 colon) was > 100 µM, the TGI (KM12 colon) was > 100 µM and the TGI (MCF7 breast) was > 100 µM. The TGI (MDA-N) was > 100 µM, the TGI (NCI-H23 lung) was > 100 µM and the TGI (NCI/ADR-RES ovarian) was > 100 µM. The TGI (OVCAR-4 ovarian) was > 100 µM, the TGI (SK-MEL-2 melanoma) was > 100 µM and the TGI (SW-620 colon) was > 100 µM. The TGI (U251 CNS) was > 100 µM.

For Cc1ccc(S[C@@](C=O)(NC(=O)OCc2ccccc2)C(F)(F)F)cc1, the TGI (BT-549 breast) was 81.8 µM, the TGI (DU-145 prostate) was 47.4 µM and the TGI (HCT-116 colon) was 36.7 µM. The TGI (HCT-15 colon) was 54.4 µM, the TGI (KM12 colon) was 52.8 µM and the TGI (MCF7 breast) was 78.4 µM. The TGI (MDA-N) was 58.5 µM, the TGI (NCI-H23 lung) was 39.8 µM and the TGI (NCI/ADR-RES ovarian) was 51.8 µM. For the same molecule, the TGI (OVCAR-4 ovarian) was > 100 µM, the TGI (SK-MEL-2 melanoma) was 60.8 µM and the TGI (SW-620 colon) was 66.9 µM. For the same molecule, the TGI (U251 CNS) was 40.7 µM.

For COc1ccccc1C1c2cc3c(cc2OC2(OC)COC(=O)C12)OCO3 (stereo unspecified), the TGI (BT-549 breast) was > 100 µM, the TGI (DU-145 prostate) was 69.4 µM and the TGI (HCT-116 colon) was > 80.9 µM. The TGI (HCT-15 colon) was > 100 µM, the TGI (KM12 colon) was 45.5 µM and the TGI (MCF7 breast) was > 65.7 µM. The TGI (MDA-N) was 5.51 µM, the TGI (NCI-H23 lung) was > 100 µM and the TGI (NCI/ADR-RES ovarian) was > 100 µM. The TGI (OVCAR-4 ovarian) was > 95.9 µM, the TGI (SK-MEL-2 melanoma) was 55.6 µM and the TGI (SW-620 colon) was > 100 µM. For the same molecule, the TGI (U251 CNS) was > 100 µM.

For C=CCC(CCC(C)=O)(C(=O)OCC)C(=O)OCC, the TGI (BT-549 breast) was > 100 µM, the TGI (DU-145 prostate) was > 100 µM and the TGI (HCT-116 colon) was > 100 µM. The TGI (HCT-15 colon) was > 100 µM, the TGI (KM12 colon) was > 100 µM and the TGI (MCF7 breast) was > 100 µM. For the same molecule, the TGI (MDA-N) was > 100 µM, the TGI (NCI-H23 lung) was > 100 µM and the TGI (NCI/ADR-RES ovarian) was > 100 µM. The TGI (OVCAR-4 ovarian) was > 100 µM, the TGI (SK-MEL-2 melanoma) was > 100 µM and the TGI (SW-620 colon) was > 100 µM. For the same molecule, the TGI (U251 CNS) was > 100 µM.
